From US12628822B2, “Plant pathogen defence elicitors” (UNIVERSITÉ LIBRE DE BRUXELLES, priority 2020, dated 2026)

Key:
[1] = target: beta-glucosidases enzyme from Aspergillus niger (Aspergillus niger, UniProt A2RAL4); details: 100 μM, 1 μM enzyme, 50 Celsius degree, pH 5.5; after instant (less then 5 minutes) incubation
Experimental: The volume of reaction was set at 500 μl and carried in 2 ml gas tight tubes, shacked constantly at 800 rpm, and the hydrolysis was sampled 100 μl after 5 minutes, 30 minutes and 60 minutes. The hydrolysates were analysed by HPAEC analytics according to Westereng et al. 2013 (vide supra).

[2] = test system: Ethylene production; experiment: Ethylene emanation of Arabidopsis seedlings (ETD 300 detector); format: in vivo, Arabidopsis thaliana; details: 100 μM sprayed; 3 weeks in vitro seedlings
Experimental: Ethylene production was analysed in three independent experiments with the ETD 300 detector (Sensor-Sense, Nijmegen, the Netherlands) under a stop-and-flow routine where the gas from one vial accumulated in an interval of 10 min, and then flushed to the detector. Bars in FIG. 15 represent mean and standard deviation.

Chain of beta-glucosidases enzyme from Aspergillus niger (A2RAL4 20-860): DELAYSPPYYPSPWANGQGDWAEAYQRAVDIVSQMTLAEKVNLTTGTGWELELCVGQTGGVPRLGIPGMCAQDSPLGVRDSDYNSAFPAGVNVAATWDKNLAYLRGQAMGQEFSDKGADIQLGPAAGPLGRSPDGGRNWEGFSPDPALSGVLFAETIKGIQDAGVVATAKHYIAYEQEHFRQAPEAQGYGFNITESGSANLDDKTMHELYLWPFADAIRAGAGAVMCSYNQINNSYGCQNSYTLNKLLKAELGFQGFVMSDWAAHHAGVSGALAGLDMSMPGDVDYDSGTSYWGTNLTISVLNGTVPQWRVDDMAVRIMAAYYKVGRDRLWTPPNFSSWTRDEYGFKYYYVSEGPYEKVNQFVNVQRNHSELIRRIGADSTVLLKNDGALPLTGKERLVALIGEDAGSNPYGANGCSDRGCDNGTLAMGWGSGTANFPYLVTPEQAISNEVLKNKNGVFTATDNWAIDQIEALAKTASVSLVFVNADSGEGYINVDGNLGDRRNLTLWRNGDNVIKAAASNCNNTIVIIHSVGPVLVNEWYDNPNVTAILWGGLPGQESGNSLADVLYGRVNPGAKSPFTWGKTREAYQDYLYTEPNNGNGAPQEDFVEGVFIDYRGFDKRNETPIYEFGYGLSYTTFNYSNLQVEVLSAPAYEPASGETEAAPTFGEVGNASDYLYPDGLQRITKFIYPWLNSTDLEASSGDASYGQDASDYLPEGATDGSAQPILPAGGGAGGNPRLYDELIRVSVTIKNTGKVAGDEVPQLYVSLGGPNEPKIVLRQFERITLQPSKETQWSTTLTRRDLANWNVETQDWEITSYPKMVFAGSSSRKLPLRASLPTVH

## O=C(O)[C@H](O)[C@@H](O)[C@H](O[C@@H]1O[C@H](CO)[C@@H](O)[C@H](O)[C@H]1O)[C@H](O)CO [cellobionic acid, 4-O-β-D-glucopyranosyl-D-gluconic acid]
[1]
  resistance to digestion by beta-glucosidases: able to resist the digestion
[2]
  Ethylene production versus mock-treated seedlings: higher

## O=C1C(CO)OC(OC2C(CO)OC(O)C(O)C2O)C(O)C1O (stereo not drawn) [4-keto-cellobiose]
[1]
  resistance to digestion by beta-glucosidases: able to resist the digestion
